The source made the active and inactive calls. The rule behind the calls is not given here.
How the values were obtained:
[1] = target: T1, Protein cereblon/CREB-binding protein (Homo sapiens, UniProt Q92793+Q96SW2); assay: In vivo PROTAC activity at CBP/CRBN in human VCaP cells xenografted in SCID mouse assessed as reduction in CBP protein at 1 mg/kg, po measured after 3 hrs; assay type: functional, organism-based; design: scale not given: the % may be the effect or the level left
[2] = target: T1, Protein cereblon/CREB-binding protein; assay: PROTAC activity at CBP/CRBN in AR positive human VCaP cells assessed as maximal protein degradation at 0.15 nM incubated for 4 hrs by Western blot analysis relative to control; assay type: cell-based
[3] = target: T1, Protein cereblon/CREB-binding protein; assay: PROTAC activity at CBP/CRBN in AR positive human VCaP cells assessed as maximal protein degradation at 0.46 nM incubated for 4 hrs by Western blot analysis relative to control; assay type: cell-based
[4] = target: T1, Protein cereblon/CREB-binding protein; assay: PROTAC activity at CBP/CRBN in AR positive human VCaP cells assessed as maximal protein degradation at 4.1 nM incubated for 4 hrs by Western blot analysis relative to control; assay type: cell-based
[5] = target: T1, Protein cereblon/CREB-binding protein; assay: PROTAC activity at CBP/CRBN in AR positive human VCaP cells assessed as maximal protein degradation at 12.3 nM incubated for 4 hrs by Western blot analysis relative to control; assay type: cell-based
[6] = target: T1, Protein cereblon/CREB-binding protein; assay: PROTAC activity at CBP/CRBN in AR positive human VCaP cells assessed as maximal protein degradation at 37 nM incubated for 4 hrs by Western blot analysis relative to control; assay type: cell-based
[7] = target: T2, Protein cereblon/Histone acetyltransferase p300 (Homo sapiens, UniProt Q09472+Q96SW2); assay: PROTAC activity at p300/CRBN in AR positive human VCaP cells assessed as maximal protein degradation at 4.1 nM incubated for 4 hrs by Western blot analysis relative to control; assay type: cell-based
[8] = target: T2, Protein cereblon/Histone acetyltransferase p300; assay: PROTAC activity at p300/CRBN in AR positive human VCaP cells assessed as maximal protein degradation at 37 nM incubated for 4 hrs by Western blot analysis relative to control; assay type: cell-based
[9] = target: T2, Protein cereblon/Histone acetyltransferase p300; assay: PROTAC activity at p300/CRBN in AR positive human VCaP cells assessed as maximal protein degradation at 333 nM incubated for 4 hrs by Western blot analysis relative to control; assay type: cell-based
[10] = target: T2, Protein cereblon/Histone acetyltransferase p300; assay: PROTAC activity at p300/CRBN in AR positive human VCaP cells assessed as maximal protein degradation at 1000 nM incubated for 4 hrs by Western blot analysis relative to control; assay type: cell-based
[11] = Clearance in male ICR mouse at 1 mg/kg, iv measured upto 24 hrs by LC-MS/MS analysis; assay type: ADME, organism-based; settings: in vivo
[12] = Half life in male ICR mouse at 3 mg/kg, po measured upto 24 hrs by LC-MS/MS analysis; assay type: ADME, organism-based; settings: in vivo
[13] = Cmax in male ICR mouse at 3 mg/kg, po measured upto 24 hrs by LC-MS/MS analysis; assay type: ADME, organism-based; settings: in vivo
[14] = AUC in male ICR mouse at 3 mg/kg, po measured upto 24 hrs by LC-MS/MS analysis; assay type: ADME, organism-based; settings: in vivo
[15] = Apparent permeability coefficient across apical to basolateral side in human Caco-2 cells at 10 uM incubated for 120 mins by LC-MS/MS analysis; assay type: ADME, cell-based; settings: caco-2, 2 h
[16] = target: T1, Protein cereblon/CREB-binding protein; assay: PROTAC activity at CBP/CRBN in human LNCaP cells assessed as maximal protein degradation at 1 uM incubated for 4 hrs by Western blot analysis relative to control; assay type: cell-based
[17] = target: T1, Protein cereblon/CREB-binding protein; assay: PROTAC activity at CBP/CRBN in human 22Rv1 cells assessed as maximal protein degradation at 1 uM incubated for 4 hrs by Western blot analysis relative to control; assay type: cell-based
[18] = target: T2, Protein cereblon/Histone acetyltransferase p300; assay: PROTAC activity at p300/CRBN in human 22Rv1 cells assessed as maximal protein degradation at 1 uM incubated for 4 hrs by Western blot analysis relative to control; assay type: cell-based
[19] = tested on: CWR22R; assay: Antiproliferative activity against AR positive human 22Rv1 cells assessed inhibition of cell growth measured after 4 days by CellTiter-Glo Luminescent cell viability assay; assay type: functional, cell-based; settings: 22Rv1, 96 h
[20] = tested on: LNCaP; assay: Potency index, ratio of GNE-049 IC50 to test compound IC50 for antiproliferative activity against AR positive human LNCaP cells assessed inhibition of cell growth measured after 4 days by CellTiter-Glo Luminescent cell viability assay; assay type: functional; settings: time 4 day
[21] = tested on: VCaP; assay: Potency index, ratio of ARV-110 IC50 to test compound IC50 for antiproliferative activity against AR positive human VCaP cells assessed inhibition of cell growth measured after 4 days by CellTiter-Glo Luminescent cell viability assay; assay type: functional; settings: time 4 day
[22] = tested on: LNCaP; assay: Potency index, ratio of ARV-110 IC50 to test compound IC50 for antiproliferative activity against AR positive human LNCaP cells assessed inhibition of cell growth measured after 4 days by CellTiter-Glo Luminescent cell viability assay; assay type: functional; settings: time 4 day
[23] = target: T2, Protein cereblon/Histone acetyltransferase p300; assay: PROTAC activity at p300/CRBN in human 22Rv1 cells assessed as reduction in protein level at 100 nM incubated for 4 hrs by multiplexed quantitative proteomics analysis relative to control; assay type: cell-based; design: scale not given: the % may be the effect or the level left
[24] = tested on: CWR22R; assay: Effect on other proteins on global level in human 22Rv1 cells at 100 nM incubated for 4 hrs by multiplexed quantitative proteomics analysis relative to control; assay type: functional, cell-based
[25] = tested on: VCaP; assay: Reduction in KLK3 gene expression in AR positive human VCaP cells assessed as reduction in mRNA level measured after 6 hrs by qRT-PCT analysis relative to control; assay type: functional, cell-based; settings: dose 0.1-1000 nM
[26] = tested on: VCaP; assay: Reduction in c-Myc gene expression in AR positive human VCaP cells assessed as reduction in mRNA level measured after 6 hrs by qRT-PCT analysis relative to control; assay type: functional, cell-based; settings: dose 0.1-1000 nM
[27] = Reduction in c-Myc gene expression in AR positive human VCaP cells assessed as reduction in mRNA level at 1 nM measured after 6 hrs by qRT-PCT analysis relative to control; assay type: functional
[28] = Reduction in KLK3 gene expression in AR positive human LNCaP cells assessed as reduction in mRNA level at 10 nM measured after 6 hrs by qRT-PCT analysis relative to control; assay type: functional
[29] = Drug exposure in CB17 SCID mouse xenografted with human VCaP cells assessed compound concentration in tumor at 1 mg/kg, po measured after 24 hrs by LC-MS/MS analysis; assay type: ADME, organism-based, Neoplasm; settings: in vivo, BLD = below limit of detection
[30] = Drug exposure in CB17 SCID mouse xenografted with human VCaP cells assessed compound concentration in tumor at 3 mg/kg, po measured after 24 hrs by LC-MS/MS analysis; assay type: ADME, organism-based, Neoplasm; settings: in vivo, BLD = below limit of detection
[31] = tested on: VCaP; assay: Antitumor activity against human VCaP cells xenografted in CB17 SCID mouse model assessed as tumor growth inhibition at 1 mg/kg, po qd scheduled 5 days in a week measured on day 63; assay type: functional; settings: 1512 h, time 63 day, read-out: TGI
[32] = tested on: VCaP; assay: Antitumor activity against human VCaP cells xenografted in CB17 SCID mouse model assessed as tumor growth inhibition at 1 mg/kg, po qod scheduled 5 days in a week measured on day 63; assay type: functional; settings: 1512 h, time 63 day, read-out: TGI
[33] = Toxicity in CB17 SCID mouse xenografted with human VCaP cells assessed as weight loss at 0.3 to 1 mg/kg, po qd scheduled 5 days in a week measured on day 63; assay type: organism-based; settings: in vivo, 1512 h, dose 0.3-1 mg/kg, time 63 day

T1 sequence (Q92793 2-2442 limits assumed): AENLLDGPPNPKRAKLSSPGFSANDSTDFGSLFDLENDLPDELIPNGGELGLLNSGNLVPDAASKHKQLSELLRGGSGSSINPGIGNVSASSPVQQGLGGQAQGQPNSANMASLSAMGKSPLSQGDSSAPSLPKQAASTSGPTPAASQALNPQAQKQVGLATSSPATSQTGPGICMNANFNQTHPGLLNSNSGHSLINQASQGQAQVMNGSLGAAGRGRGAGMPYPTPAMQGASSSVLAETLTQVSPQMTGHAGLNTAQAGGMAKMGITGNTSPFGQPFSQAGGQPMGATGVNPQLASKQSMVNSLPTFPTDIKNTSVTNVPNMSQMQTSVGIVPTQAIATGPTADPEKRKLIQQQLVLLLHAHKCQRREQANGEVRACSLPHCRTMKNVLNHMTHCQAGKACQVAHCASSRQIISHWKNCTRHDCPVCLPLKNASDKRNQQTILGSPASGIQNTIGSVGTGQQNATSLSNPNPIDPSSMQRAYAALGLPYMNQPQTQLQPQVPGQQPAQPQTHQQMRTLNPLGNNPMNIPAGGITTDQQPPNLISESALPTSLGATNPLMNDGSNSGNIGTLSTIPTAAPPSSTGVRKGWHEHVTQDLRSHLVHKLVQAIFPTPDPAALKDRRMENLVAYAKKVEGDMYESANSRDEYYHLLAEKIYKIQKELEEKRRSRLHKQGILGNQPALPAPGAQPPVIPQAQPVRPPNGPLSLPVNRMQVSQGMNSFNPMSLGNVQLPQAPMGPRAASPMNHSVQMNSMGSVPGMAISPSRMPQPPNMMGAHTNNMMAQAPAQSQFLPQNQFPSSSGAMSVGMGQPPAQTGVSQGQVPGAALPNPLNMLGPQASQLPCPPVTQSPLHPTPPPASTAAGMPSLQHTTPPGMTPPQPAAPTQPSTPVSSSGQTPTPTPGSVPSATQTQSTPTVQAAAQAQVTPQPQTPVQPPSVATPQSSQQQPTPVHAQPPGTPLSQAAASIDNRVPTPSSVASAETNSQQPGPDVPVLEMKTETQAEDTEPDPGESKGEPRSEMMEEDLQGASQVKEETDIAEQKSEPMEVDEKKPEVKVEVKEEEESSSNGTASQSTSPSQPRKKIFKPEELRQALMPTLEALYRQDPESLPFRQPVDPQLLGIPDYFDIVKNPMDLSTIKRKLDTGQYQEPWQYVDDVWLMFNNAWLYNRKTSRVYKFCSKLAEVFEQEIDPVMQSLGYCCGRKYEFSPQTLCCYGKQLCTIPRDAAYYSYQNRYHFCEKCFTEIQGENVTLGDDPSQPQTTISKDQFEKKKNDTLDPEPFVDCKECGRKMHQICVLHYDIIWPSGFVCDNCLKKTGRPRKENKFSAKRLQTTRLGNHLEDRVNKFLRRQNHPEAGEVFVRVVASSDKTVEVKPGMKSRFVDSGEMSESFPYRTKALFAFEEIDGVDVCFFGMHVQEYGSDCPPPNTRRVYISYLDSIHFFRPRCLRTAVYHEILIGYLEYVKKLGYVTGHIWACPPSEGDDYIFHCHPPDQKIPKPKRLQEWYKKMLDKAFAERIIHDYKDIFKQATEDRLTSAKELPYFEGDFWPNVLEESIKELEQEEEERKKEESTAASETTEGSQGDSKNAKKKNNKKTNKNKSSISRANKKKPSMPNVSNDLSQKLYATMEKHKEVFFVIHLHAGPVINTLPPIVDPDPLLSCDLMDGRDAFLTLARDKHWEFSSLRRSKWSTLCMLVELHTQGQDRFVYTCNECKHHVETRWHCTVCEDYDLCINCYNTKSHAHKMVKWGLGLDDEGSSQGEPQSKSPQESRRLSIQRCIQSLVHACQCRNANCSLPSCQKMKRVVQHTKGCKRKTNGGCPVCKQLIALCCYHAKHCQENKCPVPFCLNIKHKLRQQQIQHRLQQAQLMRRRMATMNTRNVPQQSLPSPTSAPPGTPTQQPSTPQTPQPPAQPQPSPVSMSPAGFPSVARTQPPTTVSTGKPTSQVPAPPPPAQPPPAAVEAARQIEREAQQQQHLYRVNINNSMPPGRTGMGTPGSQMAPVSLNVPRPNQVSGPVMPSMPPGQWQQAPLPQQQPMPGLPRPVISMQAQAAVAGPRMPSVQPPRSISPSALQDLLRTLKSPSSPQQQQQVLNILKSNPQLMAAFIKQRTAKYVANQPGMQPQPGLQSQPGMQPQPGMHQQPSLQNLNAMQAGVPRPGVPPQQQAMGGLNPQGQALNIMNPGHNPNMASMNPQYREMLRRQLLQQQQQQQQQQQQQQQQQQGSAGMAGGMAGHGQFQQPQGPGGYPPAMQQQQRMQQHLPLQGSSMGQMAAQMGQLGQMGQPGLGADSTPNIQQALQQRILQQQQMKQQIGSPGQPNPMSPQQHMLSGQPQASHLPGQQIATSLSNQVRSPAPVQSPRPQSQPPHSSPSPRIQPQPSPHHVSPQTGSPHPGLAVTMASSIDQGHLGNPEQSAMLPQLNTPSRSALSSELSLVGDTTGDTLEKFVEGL
T1 sequence (Q96SW2 whole entry partner): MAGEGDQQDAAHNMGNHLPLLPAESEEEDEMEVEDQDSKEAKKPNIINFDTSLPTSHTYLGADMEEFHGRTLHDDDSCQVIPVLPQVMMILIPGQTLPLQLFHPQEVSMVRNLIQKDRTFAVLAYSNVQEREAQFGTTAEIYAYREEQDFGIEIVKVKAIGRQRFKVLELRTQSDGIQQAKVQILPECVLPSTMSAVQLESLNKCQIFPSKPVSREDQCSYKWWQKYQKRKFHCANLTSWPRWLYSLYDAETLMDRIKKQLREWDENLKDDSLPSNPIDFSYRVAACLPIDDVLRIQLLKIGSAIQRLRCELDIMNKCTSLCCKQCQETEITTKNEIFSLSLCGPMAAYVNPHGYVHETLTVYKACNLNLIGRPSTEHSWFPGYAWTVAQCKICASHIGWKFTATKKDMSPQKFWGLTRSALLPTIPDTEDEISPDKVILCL

Activity [1]: > 95%
Activity [2]: 15%
Activity [3]: 76%
Activity [4]: 97%
Activity [5]: 98%
Activity [6]: 98%
Activity [7]: 100%
Activity [8]: 100%
Activity [9]: 94%
Activity [10]: 75%
clearance [11]: 1.7 mL/min/kg
half-life [12]: 2.6 h
Cmax [13]: 2490 ng/mL
AUC at 24 h [14]: 15500 ng·h/mL
Papp [15]: 2.8 10^-6 cm/s
Emax [16]: 90%
Emax [17]: 93%
Emax [18]: 91%
Activity [23]: 79%
Drug uptake [29]: Bld
Drug uptake [30]: Bld
SMILES: CC(=O)N1CCc2c(c(N3CCCc4cc(-c5cnn(C)c5)c(C(F)F)cc43)nn2[C@H]2CC[C@H](CN3CCN(c4ccc5c(c4)C(=O)N(C4CCC(=O)NC4=O)C5=O)CC3)CC2)C1 (stereo partly drawn)
IC50 [19]: 1.2 nM
Ratio IC50 [20]: 100
Ratio IC50 [21]: >50
Ratio IC50 [22]: >50
Activity [24]: inactive
inhibition [25]: Dose-Dependent Effect
inhibition [26]: Dose-Dependent Effect
inhibition at 0.001 µM [27]: > 95%
inhibition at 0.01 µM [28]: 70%
inhibition in vivo at 1 mg/kg [31]: 87%
inhibition in vivo at 1 mg/kg [32]: 71%
Activity [33]: Non-Toxic

From ChEMBL document CHEMBL5518240 (J Med Chem, 2024)
